# Assay results: PubChem BioAssay (NCI)
#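 Cultured in 96-well plates, cells were exposed to test compound for 48 hours across five concentrations. At the GI50, growth is halved. The concentration for full growth arrest is given as TGI.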
# Key:
# Assay in all cases: NCI-60 cell line screen, 48 h
# OVCAR-3 ovarian = tested on: OVCAR-3 ovarian
# MOLT-4 leukemia = tested on: MOLT-4 leukemia
# HOP-62 NSCLC = tested on: HOP-62 NSCLC
# HL-60(TB) leukemia = tested on: HL-60(TB) leukemia
# SN12C renal = tested on: SN12C renal
# IGROV1 ovarian = tested on: IGROV1 ovarian
# RXF 393 renal = tested on: RXF 393 renal
# ACHN renal = tested on: ACHN renal
# TK-10 renal = tested on: TK-10 renal
# T-47D breast = tested on: T-47D breast
Structure (SMILES),TGI (OVCAR-3 ovarian) [µM],TGI (MOLT-4 leukemia) [µM],TGI (HOP-62 NSCLC) [µM],TGI (HL-60(TB) leukemia) [µM],TGI (SN12C renal) [µM],TGI (IGROV1 ovarian) [µM],TGI (RXF 393 renal) [µM],TGI (ACHN renal) [µM],TGI (TK-10 renal) [µM],GI50 (OVCAR-3 ovarian) [µM],GI50 (MOLT-4 leukemia) [µM],GI50 (T-47D breast) [µM],TGI (T-47D breast) [µM],GI50 (SN12C renal) [µM],GI50 (IGROV1 ovarian) [µM],GI50 (RXF 393 renal) [µM],GI50 (ACHN renal) [µM],GI50 (TK-10 renal) [µM],GI50 (HOP-62 NSCLC) [µM],GI50 (HL-60(TB) leukemia) [µM]
O=C(O)C[C@H]1CCCCC12CCOC2=O (stereo partly specified),> 100,> 100,> 100,> 100,> 100,> 100,> 100,> 100,> 100,–,–,–,–,–,–,–,–,–,–,–
Oc1ccc(O)c(-c2cn3ccsc3n2)c1,20.9,5.42,–,–,26.9,28.7,29.6,25.3,47.9,7.4,2.55,19.7,40.6,12.2,15.4,14.5,12.7,21.3,–,–
Cc1ccc2ncnc(N(CC(C)C)CC(C)C)c2c1,31.5,38.4,31.2,–,38.7,> 100,27.7,31.5,37.5,16.3,7.6,20.4,89.3,17.9,23.4,11.5,15.3,19.4,15.5,–
COc1ccc(C(=O)c2cc(OC)c(OC)c(OC)c2)cc1/C=C/C(=O)c1ccc(OC)c(OC)c1,–,17.4,> 100,–,> 100,> 100,> 100,> 100,> 100,–,0.669,2.76,> 100,1.65,3.08,> 100,1.32,4.16,34.1,–
Cc1cccc2c1N(C(=O)/C=C\C(=O)O)C(c1c(C)[nH]c3ccccc13)C2 (stereo unspecified),> 10,> 100,> 100,51.3,> 100,> 10,–,> 100,> 100,–,–,–,–,–,–,–,–,–,–,–
NS(=O)(=O)c1ccc(NC2=CC(=O)C(=O)c3ccccc32)cc1,> 100,> 100,> 100,> 100,> 100,> 100,> 100,> 100,> 100,–,–,–,–,–,–,–,–,–,–,–
OCC(O)C(O)C(O)c1nn(-c2ccc(Cl)cc2)c2nc3cc(Cl)c(Cl)cc3nc12 (stereo unspecified),> 100,> 100,71,> 100,> 100,> 100,72.4,> 100,> 100,–,–,–,–,–,–,–,–,–,–,–
CCOC(=O)C1C2CCC(C2)C1(CCl)C(=O)OCC (stereo unspecified),> 100,> 100,> 100,> 100,> 100,> 100,–,> 100,> 100,–,–,–,–,–,–,–,–,–,–,–
O=C1Nc2c(C(F)(F)F)cccc2[C@@]1(c1ccc(O)cc1)c1ccc(OC(F)(F)F)cc1,< 0.0171,25.4,0.0661,23.8,< 0.011,0.0417,< 0.0232,0.0349,< 0.01,< 0.01,6.51,–,–,< 0.01,< 0.01,< 0.0107,0.0178,< 0.01,0.0226,5.59
Cc1ccc(NC(=O)C(=O)C(C#N)c2nc(-c3ccc(-c4ccccc4)cc3)cs2)c(C)c1 (stereo unspecified),> 100,> 100,> 100,–,> 100,> 100,> 100,> 100,> 100,–,–,–,–,–,–,–,–,–,–,–
O=C1c2ccccc2C(=O)N1CCN(CCN1C(=O)c2ccccc2C1=O)Cn1cccn1,> 100,> 100,> 100,74.5,> 100,–,> 100,> 100,> 100,–,–,–,–,–,–,–,–,–,–,–
O=C(c1ccccc1)N1C2CCC1C(C(F)(F)F)=C2C(F)(F)F,> 100,> 100,> 100,> 100,> 100,> 100,> 100,–,> 100,–,–,–,–,–,–,–,–,–,–,–
COc1c(C(=O)c2ccc([N+](=O)[O-])cc2)cc(C(C)(C)C)cc1C(C)(C)C,–,39.9,> 100,47.2,> 100,> 100,62.2,> 100,> 100,–,–,–,–,–,–,–,–,–,–,–
NNC(=O)CNC(=O)c1ccc(Cl)cc1Cl,> 100,> 100,> 100,> 100,> 100,> 100,–,> 100,> 100,–,–,–,–,–,–,–,–,–,–,–
CCCCCCCCOCC(O)COC(=O)CCCCCCC (stereo unspecified),64.8,> 100,> 100,93.9,> 100,> 100,–,> 100,> 100,–,–,–,–,–,–,–,–,–,–,–
Cc1cc2c(cc1C)[n+](=O)c(C(=O)C/C(=N/OCCCc1ccccc1)C(=O)Nc1cc(Cl)ccc1Cl)c(C)n2[O-],> 100,> 100,> 100,> 100,> 100,> 100,> 100,> 100,> 100,–,–,–,–,–,–,–,–,–,–,–
COc1ccc2c(c1)[n+](=O)c(C(=O)c1ccco1)c(C(F)(F)F)n2[O-],11.5,> 100,21.6,> 100,11.8,20.4,12,2.53,60.4,1.54,> 100,–,–,3.01,2.57,1.67,0.514,8.56,2.86,3.29
N#Cc1c2c(c(N=P(c3ccccc3)(c3ccccc3)c3ccccc3)n3c1nc1ccccc13)CCCC2,86.1,64.2,71.5,24.8,39.6,> 100,98.5,67.5,–,–,–,–,–,–,–,–,–,–,–,–
COC(=O)C(CC(C)C)NC(=O)NC12CC3CC(CC(F)(C3)C1)C2 (stereo unspecified),> 100,> 100,> 100,> 100,–,> 100,> 100,> 100,> 100,–,–,–,–,–,–,–,–,–,–,–
CCOC(=O)c1c(C)n2c(=O)cc(C)c3c(O)c(O)cc1c32,9.94,15.2,> 100,17.2,24.6,87,–,31.2,> 100,1.42,1.34,9.26,> 100,3.85,4.83,–,1.82,5.47,38.4,2.92

Structure (SMILES),TGI (OVCAR-3 ovarian) [µM],TGI (MOLT-4 leukemia) [µM],TGI (HOP-62 NSCLC) [µM],TGI (HL-60(TB) leukemia) [µM],TGI (SN12C renal) [µM],TGI (IGROV1 ovarian) [µM],TGI (RXF 393 renal) [µM],TGI (ACHN renal) [µM],TGI (TK-10 renal) [µM],GI50 (OVCAR-3 ovarian) [µM],GI50 (MOLT-4 leukemia) [µM],GI50 (T-47D breast) [µM],TGI (T-47D breast) [µM],GI50 (SN12C renal) [µM],GI50 (IGROV1 ovarian) [µM],GI50 (RXF 393 renal) [µM],GI50 (ACHN renal) [µM],GI50 (TK-10 renal) [µM],GI50 (HOP-62 NSCLC) [µM],GI50 (HL-60(TB) leukemia) [µM]
COC(=O)C(C(=O)C(=O)Nc1nc(=S)[nH][nH]1)c1csc(-n2nc(-c3ccccc3)cc2-c2ccccc2)n1 (stereo unspecified),> 100,> 100,> 100,> 100,> 100,> 100,> 100,> 100,> 100,–,–,–,–,–,–,–,–,–,–,–
CN(C)c1ccc(N=C2C=CC(=[N+](C)C)C=C2)cc1,17.7,–,> 100,–,> 100,37.8,> 100,37.5,53.4,4.99,–,4.37,21.2,13.7,5.35,23.4,12.2,9.24,4.21,–
CC[P+](C)(C)c1ccccc1,> 100,> 100,> 100,–,> 100,> 100,> 100,> 100,> 100,–,–,–,–,–,–,–,–,–,–,–
CC1C[C@H](C)CC(C(O)CC2CC(=O)N(Cc3ccccc3)C(=O)C2)C1O (stereo partly specified),> 100,> 100,> 100,> 100,> 100,> 100,> 100,> 100,> 100,–,–,–,–,–,–,–,–,–,–,–
CC1(C)C(O)C[C@@H](O)[C@@]2(C)C1CC[C@]1(C)C2C[C@@H](O)[C@@H]2C([C@@]3(C)CC[C@@H](C(C)(C)O)O3)CCC21C (stereo partly specified),29.4,67.7,30.3,> 55,26.9,28.1,27.1,35.8,> 62.1,–,–,–,–,–,–,–,–,–,–,–
CC(/C(=N\Nc1ccccc1)c1ccc(O)cc1)C1C(=O)Oc2ccccc21 (stereo unspecified),> 100,> 100,> 100,> 100,> 100,> 100,> 100,> 100,> 100,–,–,–,–,–,–,–,–,–,–,–
CNCc1cc(OC)ccc1-c1ccc(OC)c(OC)c1OC,> 100,> 100,> 100,> 100,> 100,> 100,> 100,> 100,> 100,–,–,–,–,–,–,–,–,–,–,–
CC(=O)c1cc(C(=O)c2ccc3c(c2)Sc2ccccc2N3)c2c(C)cc(C)cn12,0.596,> 100,> 63,–,> 100,> 100,0.699,> 40.1,> 100,0.222,0.465,12.8,> 100,0.724,0.596,0.162,0.605,1.31,0.394,–
CC1CC(=O)Nc2ccccc2N1C(=O)CN1CCC(CCCCN(C)C)CC1 (stereo unspecified),> 100,> 100,> 100,> 100,> 100,> 100,> 100,> 100,> 100,–,–,–,–,–,–,–,–,–,–,–
O=C1CCC2CC(C(=O)c3ccccc3)CCC2CN1 (stereo unspecified) (tested in a mixture with another compound),> 100,> 100,> 100,> 100,> 100,> 100,> 100,> 100,–,–,–,–,–,–,–,–,–,–,–,–
CCOC(=O)CSC(=O)NCCCl,> 100,> 100,> 100,> 100,> 100,> 100,> 100,> 100,> 100,–,> 100,–,–,–,–,–,–,–,–,22.3
CC1SC2=NC3=C(c4ccccc4C3=O)C(c3ccc(Cl)cc3)N2C1=O (stereo unspecified),> 100,> 100,> 100,> 100,> 100,> 100,–,> 100,> 100,–,–,–,–,–,–,–,–,–,–,–
CCCCCCCCCCCCCC(=O)OCC1OC(n2cc(F)c(=O)[nH]c2=O)C(NC(=O)OCc2ccccc2)C(OC(=O)CCCCCCCCCCCCC)C1O (stereo unspecified),> 100,> 100,> 100,> 100,> 100,> 100,> 100,> 100,> 100,–,–,–,–,–,–,–,–,–,–,–
CC1=NOC(=O)/C1=C/c1cccc2ccccc12,> 100,> 100,> 100,> 100,> 100,> 100,> 100,> 100,> 100,–,–,–,–,–,–,–,–,–,–,–
CC(=O)Nc1cc(N(CCOS(C)(=O)=O)CCOS(C)(=O)=O)ccc1N=O,> 100,> 100,> 100,> 100,–,> 100,–,> 100,> 100,–,–,–,–,–,–,–,–,–,–,–
COC(=O)/C(=N\Nc1nc(=S)[nH]n1N)C(C#N)c1ccccc1 (stereo unspecified),> 100,> 100,> 100,> 100,> 100,> 100,> 100,> 100,> 100,–,–,–,–,–,–,–,–,–,–,–
COc1ccc(C2CC(c3cc(C)ccc3O)=NC(N)=N2)cc1 (stereo unspecified),> 100,> 100,> 100,> 100,> 100,> 100,> 100,> 100,> 100,–,–,–,–,–,–,–,–,–,–,–
NC(N)=N/N=C/c1c(-c2cc(Cl)sc2Cl)nc2sccn12,3.4,1.91,7.24,–,1.41,8.08,13.7,1.41,2.78,1.27,0.912,–,–,0.642,1.14,3.52,0.703,1.29,2.07,–
CC1COc2c(N3CCN(C)CC3)c(F)cc3c(=O)c(C(=O)O)cn1c23 (stereo unspecified),> 100,–,> 100,–,> 100,> 100,> 100,> 100,> 100,> 100,–,–,–,> 100,> 100,> 100,> 100,> 100,> 100,–
